Each molecule was assayed against T1, chimeric human H3 receptor (Homo sapiens, UniProt Q9Y5N1) (assay: Chimeric human H3 receptor screening GTP binding assay (inhibition of histamine-stimulated GTP-gamma35S binding, Example 8)). Settings: 1 h; assay described in Example 8; symbol "!" in column headed Ki; read-out: Ki ("!": percent inhibition of agonist-induced GTP-gammaS binding to H3).
T1 construct: rat Galpha-i2 (Gnai2, rat); made in house; host or cells: Sf9 insect cells (baculovirus); P2 membranes
T1 sequence (Q9Y5N1 with tags, fused parts or gaps): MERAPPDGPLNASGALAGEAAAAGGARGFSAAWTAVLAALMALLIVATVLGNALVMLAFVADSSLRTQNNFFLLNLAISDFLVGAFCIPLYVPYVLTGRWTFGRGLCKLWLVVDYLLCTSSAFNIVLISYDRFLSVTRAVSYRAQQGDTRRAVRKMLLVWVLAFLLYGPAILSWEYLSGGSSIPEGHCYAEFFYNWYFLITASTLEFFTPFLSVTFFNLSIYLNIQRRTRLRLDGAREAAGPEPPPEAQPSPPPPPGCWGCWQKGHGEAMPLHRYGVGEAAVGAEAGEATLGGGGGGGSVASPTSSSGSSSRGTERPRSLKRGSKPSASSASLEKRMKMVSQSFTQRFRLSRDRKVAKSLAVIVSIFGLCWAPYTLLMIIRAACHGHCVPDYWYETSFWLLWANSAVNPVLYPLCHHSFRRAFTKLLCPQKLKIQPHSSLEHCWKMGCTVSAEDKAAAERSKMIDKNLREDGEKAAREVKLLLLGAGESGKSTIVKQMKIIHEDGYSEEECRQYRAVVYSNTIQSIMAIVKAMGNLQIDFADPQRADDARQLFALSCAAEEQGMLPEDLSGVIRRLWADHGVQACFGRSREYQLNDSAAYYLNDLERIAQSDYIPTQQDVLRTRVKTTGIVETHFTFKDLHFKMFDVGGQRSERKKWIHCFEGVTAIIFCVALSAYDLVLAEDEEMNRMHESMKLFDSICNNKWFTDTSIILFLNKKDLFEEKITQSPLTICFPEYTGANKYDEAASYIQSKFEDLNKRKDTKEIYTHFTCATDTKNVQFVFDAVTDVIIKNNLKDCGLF
Assay type: biochemical
How it was run: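 Sf9 membranes co-expressing chimeric human H3 receptor and heterotrimeric G-protein (35 μg protein) incubated 60 min at room temperature with 4 μM compound, 1 μM histamine and 125 pM GTP-gamma35S in pH 7.4 buffer with 10 μM GDP. Filter-bound radioactivity, nonspecific (10 μM GTP-gammaS) subtracted, reported as % inhibition of histamine signal.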

Inhibition at 4 µM, ≥ 90%:
O=C(c1ccc(F)c(Cl)c1)N1CCc2cnc(N3CCN(C4CCC4)CC3)nc2CC1 [Compound 393, 7-(3-chloro-4-fluorobenzoyl)-2-(4-cyclobutylpiperazin-1-yl)-6,7,8,9-tetrahydro-5H-pyrimido[4,5-d]azepine]
COc1cccc(OC)c1C(=O)N1CCc2cnc(N3CCN(C4CCC4)CC3)nc2CC1 [Compound 424, 2-(4-cyclobutylpiperazin-1-yl)-7-(2,6-dimethoxybenzoyl)-6,7,8,9-tetrahydro-5H-pyrimido[4,5-d]azepine]
CCCCc1ccc(C(=O)N2CCc3cnc(N4CCN(C5CCC5)CC4)nc3CC2)nc1 [Compound 489, 7-[(5-butylpyridin-2-yl)carbonyl]-2-(4-cyclobutylpiperazin-1-yl)-6,7,8,9-tetrahydro-5H-pyrimido[4,5-d]azepine]
CCSc1ncccc1C(=O)N1CCc2cnc(N3CCN(C4CCC4)CC3)nc2CC1 [Compound 502, 2-(4-cyclobutylpiperazin-1-yl)-7-{[2-(ethylthio)pyridin-3-yl]carbonyl}-6,7,8,9-tetrahydro-5H-pyrimido[4,5-d]azepine]
CC(C)c1ccc(CC(=O)N2CCc3cnc(N4CCN(C5CCC5)CC4)nc3CC2)cc1 [Compound 521, 2-(4-cyclobutylpiperazin-1-yl)-7-[(4-isopropylphenyl)acetyl]-6,7,8,9-tetrahydro-5H-pyrimido[4,5-d]azepine]
O=C(c1ccccc1OC(F)(F)F)N1CCc2cnc(N3CCN(C4CCC4)CC3)nc2CC1 [Compound 412, 2-(4-cyclobutylpiperazin-1-yl)-7-[2-(trifluoromethoxy)benzoyl]-6,7,8,9-tetrahydro-5H-pyrimido[4,5-d]azepine]
Cc1oc(-c2ccc(Cl)cc2)cc1C(=O)N1CCc2cnc(N3CCN(C4CCC4)CC3)nc2CC1 [Compound 471, 7-[5-(4-chlorophenyl)-2-methyl-3-furoyl]-2-(4-cyclobutylpiperazin-1-yl)-6,7,8,9-tetrahydro-5H-pyrimido[4,5-d]azepine]
O=C(c1cccc(Cl)c1)N1CCc2cnc(N3CCN(C4CCC4)CC3)nc2CC1 [Compound 386, 7-(3-chlorobenzoyl)-2-(4-cyclobutylpiperazin-1-yl)-6,7,8,9-tetrahydro-5H-pyrimido[4,5-d]azepine]
COc1ccc(OC)c(Sc2ncccc2C(=O)N2CCc3cnc(N4CCN(C5CCC5)CC4)nc3CC2)c1 [Compound 500, 2-(4-cyclobutylpiperazin-1-yl)-7-({2-[(2,5-dimethoxyphenyl)thio]pyridin-3-yl}carbonyl)-6,7,8,9-tetrahydro-5H-pyrimido[4,5-d]azepine]
Cc1cc(C(=O)N2CCc3cnc(N4CCN(C5CCC5)CC4)nc3CC2)n(C(C)(C)C)n1 [Compound 505, 7-[(1-tert-butyl-3-methyl-1H-pyrazol-5-yl)carbonyl]-2-(4-cyclobutylpiperazin-1-yl)-6,7,8,9-tetrahydro-5H-pyrimido[4,5-d]azepine]

Same assay, conditions: 1 h; assay of Example 8; symbol "!" in column headed Ki; read-out: percent inhibition of agonist-induced GTP-gammaS binding to H3

Inhibition at 4 µM, ≥ 90%:
COc1cccc(C(=O)N2CCc3cnc(N4CCN(C5CCC5)CC4)nc3CC2)c1 [Compound 190, 2-(4-cyclobutylpiperazin-1-yl)-7-(3-methoxybenzoyl)-6,7,8,9-tetrahydro-5H-pyrimido[4,5-d]azepine]
CCC(C(=O)N1CCc2cnc(N3CCN(C4CCC4)CC3)nc2CC1)c1ccccc1 (stereo not drawn) [Compound 348, 2-(4-cyclobutylpiperazin-1-yl)-7-(2-phenylbutanoyl)-6,7,8,9-tetrahydro-5H-pyrimido[4,5-d]azepine]
COc1ccc(OCC(=O)N2CCc3cnc(N4CCN(C5CCC5)CC4)nc3CC2)cc1 [Compound 325, 2-(4-cyclobutylpiperazin-1-yl)-7-[(4-methoxyphenoxy)acetyl]-6,7,8,9-tetrahydro-5H-pyrimido[4,5-d]azepine]
O=C(Cc1cccc2ccccc12)N1CCc2cnc(N3CCN(C4CCC4)CC3)nc2CC1 [Compound 309, 2-(4-cyclobutylpiperazin-1-yl)-7-(1-naphthylacetyl)-6,7,8,9-tetrahydro-5H-pyrimido[4,5-d]azepine]
O=C(c1ccccn1)N1CCc2cnc(N3CCN(C4CCC4)CC3)nc2CC1 [Compound 199, 2-(4-cyclobutylpiperazin-1-yl)-7-(pyridin-2-ylcarbonyl)-6,7,8,9-tetrahydro-5H-pyrimido[4,5-d]azepine]
O=C(Cc1ccccc1OCc1ccccc1)N1CCc2cnc(N3CCN(C4CCC4)CC3)nc2CC1 [Compound 314, 7-{[2-(benzyloxy)phenyl]acetyl}-2-(4-cyclobutylpiperazin-1-yl)-6,7,8,9-tetrahydro-5H-pyrimido[4,5-d]azepine]
COc1ccc(OC)c(CN2CCc3cnc(N4CCN(C5CCC5)CC4)nc3CC2)c1 [Compound 261, 2-(4-cyclobutylpiperazin-1-yl)-7-(2,5-dimethoxybenzyl)-6,7,8,9-tetrahydro-5H-pyrimido[4,5-d]azepine]
CC(Oc1ccc(OC(F)(F)F)cc1)C(=O)N1CCc2cnc(N3CCN(C4CCC4)CC3)nc2CC1 (stereo not drawn) [Compound 343, 2-(4-cyclobutylpiperazin-1-yl)-7-{2-[4-(trifluoromethoxy)phenoxy]propanoyl}-6,7,8,9-tetrahydro-5H-pyrimido[4,5-d]azepine]
O=C(c1ccc(C(F)(F)F)cc1)N1CCc2cnc(N3CCN(C4CCC4)CC3)nc2CC1 [Compound 269, 2-(4-cyclobutylpiperazin-1-yl)-7-[4-(trifluoromethyl)benzoyl]-6,7,8,9-tetrahydro-5H-pyrimido[4,5-d]azepine]
Cn1ccnc1CN1CCc2cnc(N3CCN(C4CCC4)CC3)nc2CC1 [Compound 235, 2-(4-cyclobutylpiperazin-1-yl)-7-[(1-methyl-1H-imidazol-2-yl)methyl]-6,7,8,9-tetrahydro-5H-pyrimido[4,5-d]azepine]

Same assay, conditions: symbol ! in Ki; test compound 4 μM, 1 μM histamine; read-out: percent inhibition of agonist-induced GTP-gammaS binding to H3

Inhibition at 4 µM, ≥ 90%:
COc1cccc(C(C)N2CCc3c(ncnc3N3CCN(C4CCC4)CC3)C2)c1OC (stereo not drawn) [Compound 131, 4-(4-cyclobutylpiperazin-1-yl)-7-[1-(2,3-dimethoxyphenyl)ethyl]-5,6,7,8-tetrahydropyrido[3,4-d]pyrimidine]
Cc1ccc(C(=O)N2CCc3c(ncnc3N3CCN(C4CCC4)CC3)C2)cc1 [Compound 24, 4-(4-cyclobutylpiperazin-1-yl)-7-(4-methylbenzoyl)-5,6,7,8-tetrahydropyrido[3,4-d]pyrimidine]
Cc1c(F)cccc1CN1CCc2c(ncnc2N2CCN(C3CCC3)CC2)C1 [Compound 97, 4-(4-cyclobutylpiperazin-1-yl)-7-(3-fluoro-2-methylbenzyl)-5,6,7,8-tetrahydropyrido[3,4-d]pyrimidine]
CCC(CC)CN1CCc2c(ncnc2N2CCN(C3CCC3)CC2)C1 [Compound 88, 4-(4-cyclobutylpiperazin-1-yl)-7-(2-ethylbutyl)-5,6,7,8-tetrahydropyrido[3,4-d]pyrimidine]
Cc1ccc(CN2CCc3nc(N4CCN(C5CCC5)CC4)ncc3C2)cc1C [Compound 637, 2-(4-cyclobutylpiperazin-1-yl)-6-(3,4-dimethylbenzyl)-5,6,7,8-tetrahydropyrido[4,3-d]pyrimidine]
CC(c1ccc(Cl)cc1Cl)N1CCc2c(ncnc2N2CCN(C3CCC3)CC2)C1 (stereo not drawn) [Compound 136, 4-(4-cyclobutylpiperazin-1-yl)-7-[1-(2,4-dichlorophenyl)ethyl]-5,6,7,8-tetrahydropyrido[3,4-d]pyrimidine]
CC(c1ccc2ccccc2n1)N1CCc2c(ncnc2N2CCN(C3CCC3)CC2)C1 (stereo not drawn) [Compound 130, 4-(4-cyclobutylpiperazin-1-yl)-7-(1-quinolin-2-ylethyl)-5,6,7,8-tetrahydropyrido[3,4-d]pyrimidine]
O=C(C1CCCO1)N1CCc2c(ncnc2N2CCN(C3CCC3)CC2)C1 (stereo not drawn) [Compound 57, 4-(4-cyclobutylpiperazin-1-yl)-7-(tetrahydrofuran-2-ylcarbonyl)-5,6,7,8-tetrahydropyrido[3,4-d]pyrimidine]
CCC(C)C(C)N1CCc2c(ncnc2N2CCN(C3CCC3)CC2)C1 (stereo not drawn) [Compound 122, 4-(4-cyclobutylpiperazin-1-yl)-7-(1,2-dimethylbutyl)-5,6,7,8-tetrahydropyrido[3,4-d]pyrimidine]
O=C(C1CCCC1)N1CCc2c(ncnc2N2CCN(C3CCC3)CC2)C1 [Compound 54, 4-(4-cyclobutylpiperazin-1-yl)-7-(cyclopentylcarbonyl)-5,6,7,8-tetrahydropyrido[3,4-d]pyrimidine]
c1ccc2nc(CN3CCc4c(ncnc4N4CCN(C5CCC5)CC4)C3)ccc2c1 [Compound 93, 4-(4-cyclobutylpiperazin-1-yl)-7-(quinolin-2-ylmethyl)-5,6,7,8-tetrahydropyrido[3,4-d]pyrimidine]
c1nc2c(c(N3CCN(C4CCC4)CC3)n1)CCN(Cc1ccc3c(c1)OCCO3)CC2 [Compound 173, 4-(4-cyclobutylpiperazin-1-yl)-7-(2,3-dihydro-1,4-benzodioxin-6-ylmethyl)-6,7,8,9-tetrahydro-5H-pyrimido[4,5-d]azepine]
CCCC(C)C(C)N1CCc2c(ncnc2N2CCN(C3CCC3)CC2)C1 (stereo not drawn) [Compound 125, 4-(4-cyclobutylpiperazin-1-yl)-7-(1,2-dimethylpentyl)-5,6,7,8-tetrahydropyrido[3,4-d]pyrimidine]
